Assay: Infusion compatibility: 25HC3S diluted in 5% dextrose infusion bag and eluted through infusion sets (potency, osmolality, pH, appearance)
Format: physicochemical
Description: A physical and chemical compatibility study was conducted at a 30 mg, 48 mg and 300 mg 25HC3S dose in 5% dextrose and 0.9% sodium chloride infusion bags. Descriptions of the two kinds of infusion sets tested with 25HC3S product diluted in 5% dextrose and 0.9% sodium chloride are listed in Table 15. The tubing in catalog number 2H8480 infusion set was composed of polyvinylchloride (PVC), while the tubing in catalog number 2C8858 was polyethylene lined except for a short pump segment (approximately 12 inches) which was composed of PVC.
25HC3S for Injection and Vehicle for 25HC3S for Injection, that had been stored at 2-8° C. for approximately 16 months, were used for the compatibility study. After constitution, 30 mg (1.0 mL of constituted product), 48 mg (1.6 mL of constituted product) or 300 mg (10 mL of constituted product) were added to 100 mL infusion bags of 5% dextrose and 0.9% sodium chloride, mixed thoroughly, and stored for 24 hours at room temperature and at 2-8° C. […] Taking into consideration the overfill per infusion bag and the additional volume introduced by adding the constituted 25HC3S product to each bag, the expected concentrations of 25HC3S were 0.28 mg/mL, 0.44 mg/mL, and 2.56 mg/mL in the infusion bags. Two kinds of infusion sets were then attached to the drug containing infusion bags, and the entire contents were eluted through the infusion sets at approximately 50 mL/hour at room temperature. Samples were collected from the 25HC3S prepared infusion bags at T=0 and at 24 hours, and from the total eluent passed through the infusion sets, and tested for 25HC3S concentration using HPLC. Solution visual appearance, osmolality (using method USP<785>), and pH (using method USP<791>) were also measured on the collected samples.

[1] = 5% dextrose, approx. 0.28 mg/mL, bag 24 h at 25° C., Baxter 2C8858
[2] = 5% dextrose, approx. 0.28 mg/mL, bag 24 h at 25° C., Baxter 2H8480
[3] = 5% dextrose, approx. 0.44 mg/mL, bag 24 h at 2-8° C., Baxter 2C8858
[4] = 5% dextrose, approx. 0.44 mg/mL, bag 24 h at 2-8° C., Baxter 2H8480
[5] = 5% dextrose, approx. 0.44 mg/mL, bag 24 h at 25° C., Baxter 2C8858
[6] = 5% dextrose, approx. 0.44 mg/mL, bag 24 h at 25° C., Baxter 2H8480
[7] = 5% dextrose, approx. 2.56 mg/mL, bag 24 h at 2-8° C., Baxter 2C8858
[8] = 5% dextrose, approx. 2.56 mg/mL, bag 24 h at 2-8° C., Baxter 2H8480
[9] = 5% dextrose, approx. 2.56 mg/mL, bag 24 h at 25° C., Baxter 2C8858
[10] = 5% dextrose, approx. 2.56 mg/mL, bag 24 h at 25° C., Baxter 2H8480
[11] = dextrose drug containing solutions

Compound: C[C@H](CCCC(C)(C)O)[C@H]1CC[C@H]2[C@@H]3CC=C4C[C@@H](OS(=O)(=O)[O-])CC[C@]4(C)[C@H]3CC[C@]12C.[Na+] [Formulation 25HC3S, 5-cholesten-3, 25-diol, 3-sulfate]
- After Storage in Infusion Bag and Collection from Infusion Set % Remaining Compared to T = 0 [1]: (100.0%)
- After Storage in Infusion Bag and Collection from Infusion Set Concentration [1]: 0.277 mg/mL
- After Storage in Infusion Bag and Collection from Infusion Set Osmolality [1]: 252 mmol/kg
- After Storage in Infusion Bag and Collection from Infusion Set pH [1]: 7.04
- After Storage in Infusion Bag and Collection from Infusion Set % Remaining Compared to T = 0 [2]: (100.0%)
- After Storage in Infusion Bag and Collection from Infusion Set Concentration [2]: 0.276 mg/mL
- After Storage in Infusion Bag and Collection from Infusion Set Osmolality [2]: 252 mmol/kg
- After Storage in Infusion Bag and Collection from Infusion Set pH [2]: 6.99
- After Storage in Infusion Bag and Collection from Infusion Set % Remaining Compared to T = 0 [3]: (100.2%)
- After Storage in Infusion Bag and Collection from Infusion Set Concentration [3]: 0.440 mg/mL
- After Storage in Infusion Bag and Collection from Infusion Set Osmolality [3]: 255 mmol/kg
- After Storage in Infusion Bag and Collection from Infusion Set pH [3]: 6.93
- After Storage in Infusion Bag and Collection from Infusion Set % Remaining Compared to T = 0 [4]: (100.2%)
- After Storage in Infusion Bag and Collection from Infusion Set Concentration [4]: 0.440 mg/mL
- After Storage in Infusion Bag and Collection from Infusion Set Osmolality [4]: 257 mmol/kg
- After Storage in Infusion Bag and Collection from Infusion Set pH [4]: 6.91
- After Storage in Infusion Bag and Collection from Infusion Set % Remaining Compared to T = 0 [5]: (100.0%)
- After Storage in Infusion Bag and Collection from Infusion Set Concentration [5]: 0.442 mg/mL
- After Storage in Infusion Bag and Collection from Infusion Set Osmolality [5]: 253 mmol/kg
- After Storage in Infusion Bag and Collection from Infusion Set pH [5]: 6.90
- After Storage in Infusion Bag and Collection from Infusion Set % Remaining Compared to T = 0 [6]: (100.2%)
- After Storage in Infusion Bag and Collection from Infusion Set Concentration [6]: 0.448 mg/mL
- After Storage in Infusion Bag and Collection from Infusion Set Osmolality [6]: 253 mmol/kg
- After Storage in Infusion Bag and Collection from Infusion Set pH [6]: 6.91
- After Storage in Infusion Bag and Collection from Infusion Set % Remaining Compared to T = 0 [7]: (100.4%)
- After Storage in Infusion Bag and Collection from Infusion Set Concentration [7]: 2.535 mg/mL
- After Storage in Infusion Bag and Collection from Infusion Set Osmolality [7]: 248 mmol/kg
- After Storage in Infusion Bag and Collection from Infusion Set pH [7]: 6.10
- After Storage in Infusion Bag and Collection from Infusion Set % Remaining Compared to T = 0 [8]: (100.4%)
- After Storage in Infusion Bag and Collection from Infusion Set Concentration [8]: 2.540 mg/mL
- After Storage in Infusion Bag and Collection from Infusion Set Osmolality [8]: 247 mmol/kg
- After Storage in Infusion Bag and Collection from Infusion Set pH [8]: 5.99
- After Storage in Infusion Bag and Collection from Infusion Set % Remaining Compared to T = 0 [9]: (101.4%)
- After Storage in Infusion Bag and Collection from Infusion Set Concentration [9]: 2.545 mg/mL
- After Storage in Infusion Bag and Collection from Infusion Set Osmolality [9]: 251 mmol/kg
- After Storage in Infusion Bag and Collection from Infusion Set pH [9]: 6.00
- After Storage in Infusion Bag and Collection from Infusion Set % Remaining Compared to T = 0 [10]: (99.2%)
- After Storage in Infusion Bag and Collection from Infusion Set Concentration [10]: 2.480 mg/mL
- After Storage in Infusion Bag and Collection from Infusion Set Osmolality [10]: 261 mmol/kg
- After Storage in Infusion Bag and Collection from Infusion Set pH [10]: 6.01
- deviation of 25HC3S concentrations from the initial T=0 time point (5% dextrose, after 24 hours at room temperature and at 2-8° C., and after elution through infusion sets): ≤ 1.4%
- osmolality trend [11]: no consistent trends over time in the infusion bag or after elution through the infusion sets
- pH trend [11]: no trends over time or after elution through the infusion sets
- solution visual appearance (dextrose, all three concentrations, after 24 hours in bags and after elution): remained as clear and colorless solutions

— US20190374554A1, “USE OF OXYGENATED CHOLESTEROL SULFATES (OCS) TO TREAT INFLAMMATORY SKIN DISEASE AND SKIN LESIONS” (Virginia Commonwealth University, priority 2016, published 2019)
